These molecules were tested on southern crabgrass (assay: Test Example 4: herbicidal effect by soil treatment (Table 19, symbol F)). Conditions: 320 g/ha.
Format: in vivo, southern crabgrass (Digitaria ciliaris)
In short: (§1)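 Step 1: sow seeds in sterilized diluvial soil, cover ~1.5 cm. Step 2: spray diluted emulsion onto soil surface at predetermined rate. Step 3: greenhouse, 25–30° C, three weeks. Step 4: grade effect on each plant by earlier criteria.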

| Compound | herbicidal effect rating, F: southern crabgrass |
| --- | --- |
| CCCC(=O)Oc1c(C)nn(C)c(=O)c1-c1c(-c2ccc(C(C)=NOC)cc2)sc2ccc(F)cc12 [2-080] | 2 (Herbicidal rate of 20% or more and less than 40%) |

Same assay, conditions: amount of applied herbicide 320 g/ha

| Compound | F: southern crabgrass, herbicidal effect rating |
| --- | --- |
| Cc1nn(C)c(=O)c(-c2c(-c3ccc(C(F)(F)F)cc3)sc3ccc(Cl)cc23)c1O [2-111] | 0 (Herbicidal rate of 5% or less (almost no effect)) |
| CCCC(=O)Oc1c(C)nn(C)c(=O)c1-c1c(-c2ccccc2OC)sc2ccc(C)cc12 [2-139] | 0 (Herbicidal rate of 5% or less (almost no effect)) |

These molecules were tested on oval-leafed pondweed (assay: Test Example 2: herbicidal activity, application during weed generation under submerged conditions (Table 17, symbol C)). Conditions: AAH 320 g/ha; application during weed generation, submerged conditions.
Format: in vivo, oval-leafed pondweed (Monochoria vaginalis)
In short: (§2)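 Alluvial soil in Wagner pots was flooded to 4 cm depth and sown with the three weeds together; pots were kept in a greenhouse at 25° C. to 30° C. At the one to two leaf stage, an emulsion formulation diluted in water to a set rate went onto the water surface; scored three weeks later.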

| Compound | herbicidal effect rating, C: oval-leafed pondweed |
| --- | --- |
| CCCC(=O)Oc1c(C)nn(C)c(=O)c1-c1c(-c2ccc(C(C)=NOC)cc2)sc2ccc(F)cc12 [2-080] | 4 (Herbicidal rate of 70% or more and less than 90%) |
| Cc1nn(C)c(=O)c(-c2c(-c3ccc(C(F)(F)F)cc3)sc3ccc(Cl)cc23)c1O [2-111] | 0 (Herbicidal rate of 5% or less (almost no effect)) |
| CCCC(=O)Oc1c(C)nn(C)c(=O)c1-c1c(-c2ccccc2OC)sc2ccc(C)cc12 [2-139] | 0 (Herbicidal rate of 5% or less (almost no effect)) |

What follows are molecules tested on velvetleaf (assay: Test Example 4: herbicidal effect by soil treatment (Table 19, symbol M)). Conditions: 320 g/ha.
Format: in vivo, velvetleaf (Abutilon theophrasti)
In short: as §1

| Compound | herbicidal effect rating, M: velvetleaf |
| --- | --- |
| CCCC(=O)Oc1c(C)nn(C)c(=O)c1-c1c(-c2ccc(C(C)=NOC)cc2)sc2ccc(F)cc12 [2-080] | 5 (Herbicidal rate of 90% or more (almost completely withered)) |

Same assay, conditions: amount of applied herbicide 320 g/ha

| Compound | M: velvetleaf, herbicidal effect rating |
| --- | --- |
| Cc1nn(C)c(=O)c(-c2c(-c3ccc(C(F)(F)F)cc3)sc3ccc(Cl)cc23)c1O [2-111] | 0 (Herbicidal rate of 5% or less (almost no effect)) |
| CCCC(=O)Oc1c(C)nn(C)c(=O)c1-c1c(-c2ccccc2OC)sc2ccc(C)cc12 [2-139] | 0 (Herbicidal rate of 5% or less (almost no effect)) |

These molecules were tested on wild oat (assay: Test Example 4: herbicidal effect by soil treatment (Table 19, symbol I)). Conditions: 320 g/ha.
Format: in vivo, wild oat (Avena fatua)
In short: as §1

| Compound | herbicidal effect rating, I: wild oat |
| --- | --- |
| CCCC(=O)Oc1c(C)nn(C)c(=O)c1-c1c(-c2ccc(C(C)=NOC)cc2)sc2ccc(F)cc12 [2-080] | 0 (Herbicidal rate of 5% or less (almost no effect)) |

Same assay, conditions: amount of applied herbicide 320 g/ha

| Compound | I: wild oat, herbicidal effect rating |
| --- | --- |
| Cc1nn(C)c(=O)c(-c2c(-c3ccc(C(F)(F)F)cc3)sc3ccc(Cl)cc23)c1O [2-111] | 0 (Herbicidal rate of 5% or less (almost no effect)) |
| CCCC(=O)Oc1c(C)nn(C)c(=O)c1-c1c(-c2ccccc2OC)sc2ccc(C)cc12 [2-139] | 0 (Herbicidal rate of 5% or less (almost no effect)) |

These molecules were tested on green foxtail (assay: Test Example 5: herbicidal effect by foliage application, plastic box (Table 20, symbol G)). Conditions: foliage application, 320 g/ha, evaluated three weeks after application.
Format: in vivo, green foxtail (Setaria viridis)
In short: (§3)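 Foliar spray test: emulsion formulation diluted in water to a set application rate, sprayed onto 14-day-old plants raised in diluvial soil at 25° C to 30° C under glass. Both herbicidal effect and crop effect rated visually three weeks later.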

| Compound | herbicidal effect on G: green foxtail |
| --- | --- |
| CCCC(=O)Oc1c(C)nn(C)c(=O)c1-c1c(-c2ccc(C(C)=NOC)cc2)sc2ccc(F)cc12 [2-080] | 4 (Herbicidal rate of 70% or more and less than 90%) |
| Cc1nn(C)c(=O)c(-c2c(-c3ccc(C(F)(F)F)cc3)sc3ccc(Cl)cc23)c1O [2-111] | 0 (Herbicidal rate of 5% or less (almost no effect)) |
| CCCC(=O)Oc1c(C)nn(C)c(=O)c1-c1c(-c2ccccc2OC)sc2ccc(C)cc12 [2-139] | 3 (Herbicidal rate of 40% or more and less than 70%) |

The molecules below were run on barnyard grass (assay: Test Example 4: herbicidal effect by soil treatment (Table 19, symbol H)). Conditions: 320 g/ha.
Format: in vivo, barnyard grass (Echinochloa crus-galli)
In short: as §1

| Compound | herbicidal effect rating, H: barnyard grass |
| --- | --- |
| CCCC(=O)Oc1c(C)nn(C)c(=O)c1-c1c(-c2ccc(C(C)=NOC)cc2)sc2ccc(F)cc12 [2-080] | 2 (Herbicidal rate of 20% or more and less than 40%) |

Same assay, conditions: amount of applied herbicide 320 g/ha

| Compound | H: barnyard grass, herbicidal effect rating |
| --- | --- |
| Cc1nn(C)c(=O)c(-c2c(-c3ccc(C(F)(F)F)cc3)sc3ccc(Cl)cc23)c1O [2-111] | 0 (Herbicidal rate of 5% or less (almost no effect)) |
| CCCC(=O)Oc1c(C)nn(C)c(=O)c1-c1c(-c2ccccc2OC)sc2ccc(C)cc12 [2-139] | 0 (Herbicidal rate of 5% or less (almost no effect)) |

The molecules below were run on green foxtail (assay: Test Example 4: herbicidal effect by soil treatment (Table 19, symbol G)). Conditions: 320 g/ha.
Format: in vivo, green foxtail (Setaria viridis)
In short: as §1

| Compound | herbicidal effect rating, G: green foxtail |
| --- | --- |
| CCCC(=O)Oc1c(C)nn(C)c(=O)c1-c1c(-c2ccc(C(C)=NOC)cc2)sc2ccc(F)cc12 [2-080] | 1 (Herbicidal rate of 5% or more and less than 20%) |

Same assay, conditions: amount of applied herbicide 320 g/ha

| Compound | G: green foxtail, herbicidal effect rating |
| --- | --- |
| Cc1nn(C)c(=O)c(-c2c(-c3ccc(C(F)(F)F)cc3)sc3ccc(Cl)cc23)c1O [2-111] | 0 (Herbicidal rate of 5% or less (almost no effect)) |
| CCCC(=O)Oc1c(C)nn(C)c(=O)c1-c1c(-c2ccccc2OC)sc2ccc(C)cc12 [2-139] | 0 (Herbicidal rate of 5% or less (almost no effect)) |

These molecules were tested on Japanese bulrush (assay: Test Example 2: herbicidal activity, application during weed generation under submerged conditions (Table 17, symbol B)). Conditions: AAH 320 g/ha; application during weed generation, submerged conditions.
Format: in vivo, Japanese bulrush (Schoenoplectus juncoides)
In short: as §2

| Compound | herbicidal effect rating, B: Japanese bulrush |
| --- | --- |
| CCCC(=O)Oc1c(C)nn(C)c(=O)c1-c1c(-c2ccc(C(C)=NOC)cc2)sc2ccc(F)cc12 [2-080] | 4 (Herbicidal rate of 70% or more and less than 90%) |
| Cc1nn(C)c(=O)c(-c2c(-c3ccc(C(F)(F)F)cc3)sc3ccc(Cl)cc23)c1O [2-111] | 1 (Herbicidal rate of 5% or more and less than 20%) |
| CCCC(=O)Oc1c(C)nn(C)c(=O)c1-c1c(-c2ccccc2OC)sc2ccc(C)cc12 [2-139] | 3 (Herbicidal rate of 40% or more and less than 70%) |

Each molecule was assayed on persian speedwell (assay: Test Example 5: herbicidal effect by foliage application, plastic box (Table 20, symbol R)). Conditions: foliage application, 320 g/ha, evaluated three weeks after application.
Format: in vivo, Persian speedwell (Veronica persica)
In short: as §3

| Compound | herbicidal effect on R: persian speedwell |
| --- | --- |
| CCCC(=O)Oc1c(C)nn(C)c(=O)c1-c1c(-c2ccc(C(C)=NOC)cc2)sc2ccc(F)cc12 [2-080] | 5 (Herbicidal rate of 90% or more (almost completely withered)) |
| Cc1nn(C)c(=O)c(-c2c(-c3ccc(C(F)(F)F)cc3)sc3ccc(Cl)cc23)c1O [2-111] | 5 (Herbicidal rate of 90% or more (almost completely withered)) |
| CCCC(=O)Oc1c(C)nn(C)c(=O)c1-c1c(-c2ccccc2OC)sc2ccc(C)cc12 [2-139] | 4 (Herbicidal rate of 70% or more and less than 90%) |

The molecules below were run on late watergrass (assay: Test Example 2: herbicidal activity, application during weed generation under submerged conditions (Table 17, symbol A)). Conditions: AAH 320 g/ha; application during weed generation, submerged conditions.
Format: in vivo, late watergrass (Echinochloa oryzicola)
In short: as §2

| Compound | herbicidal effect rating, A: late watergrass |
| --- | --- |
| CCCC(=O)Oc1c(C)nn(C)c(=O)c1-c1c(-c2ccc(C(C)=NOC)cc2)sc2ccc(F)cc12 [2-080] | 2 (Herbicidal rate of 20% or more and less than 40%) |
| Cc1nn(C)c(=O)c(-c2c(-c3ccc(C(F)(F)F)cc3)sc3ccc(Cl)cc23)c1O [2-111] | 2 (Herbicidal rate of 20% or more and less than 40%) |
| CCCC(=O)Oc1c(C)nn(C)c(=O)c1-c1c(-c2ccccc2OC)sc2ccc(C)cc12 [2-139] | 3 (Herbicidal rate of 40% or more and less than 70%) |

The molecules below were run on blackgrass (assay: Test Example 4: herbicidal effect by soil treatment (Table 19, symbol J)). Conditions: 320 g/ha.
Format: in vivo, blackgrass (Alopecurus myosuroides)
In short: as §1

| Compound | herbicidal effect rating, J: blackgrass |
| --- | --- |
| CCCC(=O)Oc1c(C)nn(C)c(=O)c1-c1c(-c2ccc(C(C)=NOC)cc2)sc2ccc(F)cc12 [2-080] | 1 (Herbicidal rate of 5% or more and less than 20%) |

Same assay, conditions: amount of applied herbicide 320 g/ha

| Compound | J: blackgrass, herbicidal effect rating |
| --- | --- |
| Cc1nn(C)c(=O)c(-c2c(-c3ccc(C(F)(F)F)cc3)sc3ccc(Cl)cc23)c1O [2-111] | 5 (Herbicidal rate of 90% or more (almost completely withered)) |
| CCCC(=O)Oc1c(C)nn(C)c(=O)c1-c1c(-c2ccccc2OC)sc2ccc(C)cc12 [2-139] | 1 (Herbicidal rate of 5% or more and less than 20%) |

What follows are molecules tested on redroot pigweed (assay: Test Example 4: herbicidal effect by soil treatment (Table 19, symbol N)). Conditions: 320 g/ha.
Format: in vivo, redroot pigweed (Amaranthus retroflexus)
In short: as §1

| Compound | herbicidal effect rating, N: redroot pigweed |
| --- | --- |
| CCCC(=O)Oc1c(C)nn(C)c(=O)c1-c1c(-c2ccc(C(C)=NOC)cc2)sc2ccc(F)cc12 [2-080] | 5 (Herbicidal rate of 90% or more (almost completely withered)) |

Same assay, conditions: amount of applied herbicide 320 g/ha

| Compound | N: redroot pigweed, herbicidal effect rating |
| --- | --- |
| Cc1nn(C)c(=O)c(-c2c(-c3ccc(C(F)(F)F)cc3)sc3ccc(Cl)cc23)c1O [2-111] | 5 (Herbicidal rate of 90% or more (almost completely withered)) |
| CCCC(=O)Oc1c(C)nn(C)c(=O)c1-c1c(-c2ccccc2OC)sc2ccc(C)cc12 [2-139] | 0 (Herbicidal rate of 5% or less (almost no effect)) |

Each molecule was assayed on Italian ryegrass (assay: Test Example 5: herbicidal effect by foliage application, plastic box (Table 20, symbol K)). Conditions: foliage application, 320 g/ha, evaluated three weeks after application.
Format: in vivo, Italian ryegrass (Lolium multiflorum)
In short: as §3

| Compound | herbicidal effect on K: Italian ryegrass |
| --- | --- |
| CCCC(=O)Oc1c(C)nn(C)c(=O)c1-c1c(-c2ccc(C(C)=NOC)cc2)sc2ccc(F)cc12 [2-080] | 5 (Herbicidal rate of 90% or more (almost completely withered)) |
| Cc1nn(C)c(=O)c(-c2c(-c3ccc(C(F)(F)F)cc3)sc3ccc(Cl)cc23)c1O [2-111] | 3 (Herbicidal rate of 40% or more and less than 70%) |
| CCCC(=O)Oc1c(C)nn(C)c(=O)c1-c1c(-c2ccccc2OC)sc2ccc(C)cc12 [2-139] | 1 (Herbicidal rate of 5% or more and less than 20%) |

These molecules were tested on lambsquarters (assay: Test Example 5: herbicidal effect by foliage application, plastic box (Table 20, symbol O)). Conditions: foliage application, 320 g/ha, evaluated three weeks after application.
Format: in vivo, lambsquarters (Chenopodium album)
In short: as §3

| Compound | herbicidal effect on O: lambsquarters |
| --- | --- |
| CCCC(=O)Oc1c(C)nn(C)c(=O)c1-c1c(-c2ccc(C(C)=NOC)cc2)sc2ccc(F)cc12 [2-080] | 5 (Herbicidal rate of 90% or more (almost completely withered)) |
| Cc1nn(C)c(=O)c(-c2c(-c3ccc(C(F)(F)F)cc3)sc3ccc(Cl)cc23)c1O [2-111] | 3 (Herbicidal rate of 40% or more and less than 70%) |
| CCCC(=O)Oc1c(C)nn(C)c(=O)c1-c1c(-c2ccccc2OC)sc2ccc(C)cc12 [2-139] | 3 (Herbicidal rate of 40% or more and less than 70%) |

From patent US20230085307A1, “PYRIDAZINONE COMPOUND AND HERBICIDE” (NISSAN CHEMICAL CORPORATION, priority 2019, published 2023)
